Data taken from ChEMBL document CHEMBL1201862, “PubChem BioAssay data set” (2004).
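These data come from cells grown in 96-well plates and exposed to compound for 48 hours at five concentrations. The concentration for 50% growth inhibition is given as GI50.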 Activity calls are given as the source filed them. Rule as the data show it: active = GI50 up to about 1.1 µM and inactive = higher.

What was measured:
Assay in all cases: inhibition of tumour cell growth, NCI panel, 48 h
DLD-1 = system: DLD-1
EKVX = system: EKVX
MOLT-4 = system: MOLT-4
LXFL 529 = system: LXFL 529
XF498 = system: XF498
M14 = system: M14
HCC 2998 = system: HCC 2998
SN12C = system: SN12C
SW-620 = system: SW-620
SK-MEL-28 = system: SK-MEL-28
ACHN = system: ACHN
KM12 = system: KM12
IGROV-1 = system: IGROV-1
OVCAR-8 = system: OVCAR-8
TK-10 = system: TK-10
M19-MEL = system: M19-MEL
HL-60 = system: HL-60
RXF 631 = system: RXF 631
CCRF-CEM = system: CCRF-CEM
SK-MEL-5 = system: SK-MEL-5
NCI-H522 = system: NCI-H522
HOP-18 = system: HOP-18
NCI-H460 = system: NCI-H460
SF-268 = system: SF-268
SK-OV-3 = system: SK-OV-3
786-0 = system: 786-0
K562 = system: K562
NCI-H23 = system: NCI-H23
UACC-62 = system: UACC-62
Malme-3M = system: Malme-3M
SNB-78 = system: SNB-78
U-251 = system: U-251
HCT-15 = system: HCT-15
A498 = system: A498
SF-539 = system: SF-539
RPMI-8226 = system: RPMI-8226
RXF 393 = system: RXF 393
UO-31 = system: UO-31
SNB-19 = system: SNB-19
OVCAR-3 = system: OVCAR-3
SK-MEL-2 = system: SK-MEL-2
HT-29 = system: HT-29
COLO 205 = system: COLO 205
UACC-257 = system: UACC-257
SR = system: SR
LOX IMVI = system: LOX IMVI
CAKI-1 = system: CAKI-1
A549 = system: A549
SF-295 = system: SF-295
HCT-116 = system: HCT-116
DMS-114 = system: DMS-114
HOP-62 = system: HOP-62
OVCAR-4 = system: OVCAR-4
OVCAR-5 = system: OVCAR-5
NCI-H226 = system: NCI-H226
DMS-273 = system: DMS-273
SNB-75 = system: SNB-75
KM-20L2 = system: KM-20L2
HOP-92 = system: HOP-92

## CC1=C(NC(=O)/C(=N/NC(=S)NN)C2C(=O)CC(C)(C)CC2=O)C(=O)c2ccccc2C1=O
DLD-1
  GI50: 4.48 µM (inactive)
EKVX
  GI50: 15.7 µM (inactive)
MOLT-4
  GI50: 4.07 µM (inactive)
LXFL 529
  GI50: 11.4 µM (inactive)
XF498
  GI50: 14.9 µM (inactive)
M14
  GI50: 6.47 µM (inactive)
HCC 2998
  GI50: 10.8 µM (inactive)
SN12C
  GI50: 7.4 µM (inactive)
SW-620
  GI50: 8.49 µM (inactive)
SK-MEL-28
  GI50: 12.9 µM (inactive)
ACHN
  GI50: 13.3 µM (inactive)
KM12
  GI50: 7.03 µM (inactive)
IGROV-1
  GI50: 5.21 µM (inactive)
OVCAR-8
  GI50: 4.55 µM (inactive)
TK-10
  GI50: 16.1 µM (inactive)
M19-MEL
  GI50: 1.33 µM (inactive)
HL-60
  GI50: 3.41 µM (inactive)
RXF 631
  GI50: 7.8 µM (inactive)
CCRF-CEM
  GI50: 3.56 µM (inactive)
SK-MEL-5
  GI50: 2.15 µM (inactive)
NCI-H522
  GI50: 2.85 µM (inactive)
HOP-18
  GI50: 15.7 µM (inactive)
NCI-H460
  GI50: 17.7 µM (inactive)
SF-268
  GI50: 8.18 µM (inactive)
SK-OV-3
  GI50: 19.8 µM (inactive)
786-0
  GI50: 10.9 µM (inactive)
K562
  GI50: 10.6 µM (inactive)
NCI-H23
  GI50: 5.06 µM (inactive)
UACC-62
  GI50: 2.49 µM (inactive)
Malme-3M
  GI50: 16 µM (inactive)
SNB-78
  GI50: 15.2 µM (inactive)
U-251
  GI50: 3.91 µM (inactive)
HCT-15
  GI50: 6 µM
A498
  GI50: 20.9 µM (inactive)
SF-539
  GI50: 3.6 µM (inactive)
RPMI-8226
  GI50: 10.6 µM (inactive)
RXF 393
  GI50: 17.9 µM (inactive)
UO-31
  GI50: 12.8 µM (inactive)
SNB-19
  GI50: 13 µM (inactive)
OVCAR-3
  GI50: 2.3 µM (inactive)
SK-MEL-2
  GI50: 6.14 µM (inactive)
HT-29
  GI50: 11.1 µM (inactive)
COLO 205
  GI50: 12.5 µM (inactive)
UACC-257
  GI50: 3.43 µM (inactive)
SR
  GI50: 3.61 µM (inactive)
LOX IMVI
  GI50: 3.34 µM (inactive)
CAKI-1
  GI50: 20.7 µM (inactive)
A549
  GI50: 9.4 µM (inactive)
SF-295
  GI50: 13.7 µM (inactive)
HCT-116
  GI50: 3.97 µM (inactive)
DMS-114
  GI50: 2.12 µM (inactive)
HOP-62
  GI50: 16.1 µM (inactive)
OVCAR-4
  GI50: 13.7 µM (inactive)
OVCAR-5
  GI50: 22.4 µM (inactive)
NCI-H226
  GI50: 14 µM (inactive)
DMS-273
  GI50: 6.21 µM (inactive)
SNB-75
  GI50: 21.6 µM (inactive)
KM-20L2
  GI50: 11.4 µM (inactive)

## CC(C)(C)c1cc2nc(c1)C(C(F)(F)F)(C(F)(F)F)OB(Br)OC2(C(F)(F)F)C(F)(F)F
DLD-1
  GI50: 0.0248 µM (active)
EKVX
  GI50: < 0.01 µM (active)
MOLT-4
  GI50: < 0.01 µM (active)
LXFL 529
  GI50: 0.261 µM (active)
XF498
  GI50: 1.04 µM (active)
M14
  GI50: 0.0209 µM (active)
HCC 2998
  GI50: 0.233 µM (active)
SN12C
  GI50: 0.173 µM (active)
SW-620
  GI50: < 0.01 µM (active)
SK-MEL-28
  GI50: 4.8 µM (inactive)
KM12
  GI50: < 0.01 µM (active)
IGROV-1
  GI50: 0.0269 µM (active)
OVCAR-8
  GI50: < 0.01 µM (active)
TK-10
  GI50: 0.0802 µM (active)
M19-MEL
  GI50: 0.0268 µM (active)
RXF 631
  GI50: 0.0836 µM (active)
CCRF-CEM
  GI50: < 0.01 µM (active)
HOP-18
  GI50: < 0.01 µM (active)
SF-268
  GI50: 3.01 µM (inactive)
SK-OV-3
  GI50: 1.3 µM (inactive)
786-0
  GI50: 0.115 µM (active)
K562
  GI50: 0.0434 µM (active)
NCI-H23
  GI50: 4.47 µM (inactive)
UACC-62
  GI50: 0.0176 µM (active)
Malme-3M
  GI50: 0.617 µM (active)
SNB-78
  GI50: 0.12 µM (active)
U-251
  GI50: 0.084 µM (active)
HCT-15
  GI50: 0.0299 µM
SF-539
  GI50: 0.316 µM (active)
RPMI-8226
  GI50: 0.0607 µM (active)
RXF 393
  GI50: 10 µM (inactive)
UO-31
  GI50: 0.292 µM (active)
SNB-19
  GI50: 0.156 µM (active)
OVCAR-3
  GI50: < 0.01 µM (active)
SK-MEL-2
  GI50: 1.47 µM (inactive)
HT-29
  GI50: 0.156 µM (active)
COLO 205
  GI50: < 0.01 µM (active)
UACC-257
  GI50: < 0.01 µM (active)
LOX IMVI
  GI50: 0.0378 µM (active)
CAKI-1
  GI50: 0.0414 µM (active)
A549
  GI50: < 0.01 µM (active)
SF-295
  GI50: 0.0834 µM (active)
DMS-114
  GI50: < 0.01 µM (active)
HOP-62
  GI50: 0.0367 µM (active)
OVCAR-4
  GI50: < 0.01 µM (active)
OVCAR-5
  GI50: 0.0532 µM (active)
DMS-273
  GI50: < 0.01 µM (active)
SNB-75
  GI50: 3.56 µM (inactive)
KM-20L2
  GI50: < 0.01 µM (active)

## COC1C2c3ccccc3C(C#N)(Cc3ccc4c(c32)OCO4)N1C(=O)c1ccccc1 (stereo unspecified)
DLD-1
  GI50: 60.3 µM (inactive)
EKVX
  GI50: 45.8 µM (inactive)
MOLT-4
  GI50: 30.1 µM (inactive)
LXFL 529
  GI50: 46 µM (inactive)
XF498
  GI50: 21.3 µM (inactive)
M14
  GI50: 26.6 µM (inactive)
HCC 2998
  GI50: 37.9 µM (inactive)
SN12C
  GI50: > 100 µM (inactive)
SW-620
  GI50: 32.8 µM (inactive)
SK-MEL-28
  GI50: 90.8 µM (inactive)
ACHN
  GI50: 41.4 µM (inactive)
KM12
  GI50: 24.9 µM (inactive)
IGROV-1
  GI50: 13 µM (inactive)
OVCAR-8
  GI50: 84.9 µM (inactive)
TK-10
  GI50: > 100 µM (inactive)
HL-60
  GI50: 8.57 µM (inactive)
RXF 631
  GI50: > 100 µM (inactive)
CCRF-CEM
  GI50: 25.4 µM (inactive)
SK-MEL-5
  GI50: 3.76 µM (inactive)
NCI-H522
  GI50: 10.5 µM (inactive)
HOP-18
  GI50: 80.7 µM (inactive)
NCI-H460
  GI50: 25.9 µM (inactive)
SF-268
  GI50: > 100 µM (inactive)
SK-OV-3
  GI50: 35.3 µM (inactive)
786-0
  GI50: 98.6 µM (inactive)
K562
  GI50: 5.11 µM (inactive)
NCI-H23
  GI50: 62.2 µM (inactive)
UACC-62
  GI50: 3.37 µM (inactive)
Malme-3M
  GI50: 37.8 µM (inactive)
SNB-78
  GI50: 47.8 µM (inactive)
U-251
  GI50: 37.7 µM (inactive)
HCT-15
  GI50: 17.1 µM
SF-539
  GI50: > 100 µM (inactive)
RPMI-8226
  GI50: 16.3 µM (inactive)
RXF 393
  GI50: 16.3 µM (inactive)
UO-31
  GI50: 31.7 µM (inactive)
SNB-19
  GI50: 46.6 µM (inactive)
OVCAR-3
  GI50: 42.5 µM (inactive)
SK-MEL-2
  GI50: 46.8 µM (inactive)
HT-29
  GI50: 48 µM (inactive)
COLO 205
  GI50: 16.7 µM (inactive)
UACC-257
  GI50: 26.1 µM (inactive)
SR
  GI50: 14.3 µM (inactive)
LOX IMVI
  GI50: > 100 µM (inactive)
SF-295
  GI50: > 100 µM (inactive)
HCT-116
  GI50: 37.6 µM (inactive)
DMS-114
  GI50: 19.6 µM (inactive)
HOP-62
  GI50: 14.4 µM (inactive)
OVCAR-5
  GI50: > 100 µM (inactive)
NCI-H226
  GI50: 12.5 µM (inactive)
DMS-273
  GI50: 5.65 µM (inactive)
SNB-75
  GI50: 50.6 µM (inactive)
HOP-92
  GI50: > 100 µM (inactive)
KM-20L2
  GI50: 43.1 µM (inactive)
